Measurements taken from US20240116896A1 (ATAI Life Sciences AG, priority 2022, published 2024).

Tests used:
Format in all cases: cell-based
5-HT2A [1] = molecular target: T1, 5-HT2A (Homo sapiens, UniProt P28223); test: Calcium mobilization (Ca++ flux) assay, agonist mode, 5-HT2A; conditions: for 5-HT2A, Ca++ flux % activation @30 uM: relative to MAX serotonin control
Source text: (§1) Calcium Mobilization Assay Method (Performed by DiscoveRx Eurofins)
(§2) The Calcium No-Wash^PLUS assay monitors the activation of a GPCR via Gq secondary messenger signaling in a live cell, non-imaging assay format. Calcium mobilization in PathHunter® cell lines or other cell lines stably expressing Gq-coupled GPCRs is monitored using a calcium-sensitive dye that is loaded into cells. GPCR activation by a compound results in the release of calcium from intracellular stores and an increase in dye fluorescence that is measured in real-time.
(§3) Cell lines expressing the GPCR of interest were expanded from freezer stocks according to standard procedures. Cells were seeded in a total volume of 20 μL into black-walled, clear-bottom, Poly-D-lysine coated 384-well microplates and incubated at 37° C. for the appropriate time prior to testing.
(§4) Assays were performed in 1× Dye Loading Buffer consisting of 1× Dye, 1× Additive A and 2.5 mM Probenecid in HBSS/20 mM Hepes. Probenicid was prepared fresh. Cells were loaded with dye prior to testing. Media was aspirated from cells and replaced with 20 μL Dye Loading Buffer. Cells were incubated for 30-60 minutes at 37° C.
(§5) For agonist determination, cells were incubated with sample to induce response. After dye loading, cells were removed from the incubator and 10 μL HBSS/20 mM Hepes was added. 3× vehicle was included in the buffer when performing agonist dose curves to define the EC80 for subsequent antagonist assays. Cells were incubated for 30 minutes at room temperature in the dark to equilibrate plate temperature.
(§6) Intermediate dilution of sample stocks was performed to generate 4× sample in assay buffer. Compound agonist activity was measured on a FLIPR Tetra (MDS). Calcium mobilization was monitored for 2 minutes and 10 μL 4× sample in HBSS/20 mM Hepes was added to the cells 5 seconds into the assay.
(§7) Compound activity data was analyzed using CBIS data analysis suite (ChemInnovation, CA). For agonist mode assays, percentage activity is calculated using the following formula:
(§8) % Activity=100%×(mean RFU of test sample−mean RFU of vehicle control)/(mean MAX RFU control ligand−mean RFU of vehicle control).
(§9) In these studies, the MAX RFU was generated by using 0.1 mM serotonin for the calcium mobilization assay.

5-HT2A [2] = molecular target: T1, 5-HT2A; test: PathHunter b-arrestin assay, agonist mode, 5-HT2A
Source text: GPCR Arrestin Assay Methods
Arrestin Pathway (Performed by DiscoverX Eurofins)
The PathHunter® β-Arrestin assay monitors the activation of a GPCR in a homogenous, non-imaging assay format using a technology developed by DiscoverX called Enzyme Fragment Complementation (EFC) with β-galactosidase (β-Gal) as the functional reporter. […] EA is fused to β-Arrestin and PK is fused to the GPCR of interest.
When the GPCR is activated and β-Arrestin is recruited to the receptor, ED and EA complementation occurs, restoring β-Gal activity which is measured using chemiluminescent PathHunter® Detection Reagents.
PathHunter cell lines (DiscoveRx Eurofins) were expanded from freezer stocks according to standard procedures. Cells were seeded in a total volume of 20 μL into white walled, 384-well microplates and incubated at 37° C. for the appropriate time prior to testing. […]
b-Arrestin assay signal was generated through a single addition of 12.5 or 15 μL (50% v/v) of PathHunter Detection reagent cocktail, followed by a one-hour incubation at room temperature. Microplates were read following signal generation with a PerkinElmer Envision™ instrument for chemiluminescent signal detection.
Compound activity was analyzed using CBIS data analysis suite (ChemInnovation, CA). For agonist mode assays, percentage activity was calculated using the following formula: […]

5-HT2C = molecular target: T2, 5-HT2C (Homo sapiens, UniProt P28335); test: Calcium mobilization (Ca++ flux) assay, agonist mode, 5-HT2C
T2 sequence (P28335 33-458): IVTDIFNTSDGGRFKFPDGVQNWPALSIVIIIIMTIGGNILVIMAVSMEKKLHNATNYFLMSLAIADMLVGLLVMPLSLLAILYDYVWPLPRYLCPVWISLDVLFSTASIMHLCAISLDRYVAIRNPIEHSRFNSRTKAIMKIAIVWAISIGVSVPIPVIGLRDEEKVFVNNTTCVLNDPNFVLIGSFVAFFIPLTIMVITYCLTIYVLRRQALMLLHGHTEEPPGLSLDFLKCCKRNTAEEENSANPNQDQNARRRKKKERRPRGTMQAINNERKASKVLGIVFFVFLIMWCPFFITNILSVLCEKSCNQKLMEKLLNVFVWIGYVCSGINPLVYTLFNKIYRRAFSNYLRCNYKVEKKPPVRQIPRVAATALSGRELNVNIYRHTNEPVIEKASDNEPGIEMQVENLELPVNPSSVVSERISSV
Source text: as §1, §2
as §3, with “testing. […]” for “testing.”
as §6
Compound activity data was analyzed using CBIS data analysis suite (ChemInnovation, CA). For agonist mode assays, percentage activity is calculated using the following formula: […]

5-HT2B [3] = molecular target: T3, 5-HT2B (Homo sapiens, UniProt P41595); test: Calcium mobilization (Ca++ flux) assay, agonist mode, 5-HT2B; conditions: for 5-HT2B, Ca++ flux % activation @30 uM: relative to MAX serotonin control; for EC50: agonist mode
T3 sequence (P41595 whole entry): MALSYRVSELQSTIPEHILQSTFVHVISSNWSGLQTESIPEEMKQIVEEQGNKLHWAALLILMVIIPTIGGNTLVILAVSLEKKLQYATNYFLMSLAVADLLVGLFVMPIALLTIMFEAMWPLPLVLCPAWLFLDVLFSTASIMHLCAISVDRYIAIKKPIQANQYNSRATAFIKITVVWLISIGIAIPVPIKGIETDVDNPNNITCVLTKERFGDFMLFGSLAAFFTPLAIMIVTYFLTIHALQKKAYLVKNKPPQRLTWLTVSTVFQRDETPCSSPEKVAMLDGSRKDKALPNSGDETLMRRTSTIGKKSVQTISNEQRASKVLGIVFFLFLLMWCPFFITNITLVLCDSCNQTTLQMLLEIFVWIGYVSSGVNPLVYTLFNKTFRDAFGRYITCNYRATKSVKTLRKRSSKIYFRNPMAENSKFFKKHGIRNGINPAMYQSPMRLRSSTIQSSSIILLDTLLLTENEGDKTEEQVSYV
Source text: as §1, §2, §3, §4, §5, §6, §7, §8, §9

5-HT2A [4] = molecular target: T1, 5-HT2A; test: IPOne (IP1 HTRF) assay, CHO-K1 cells expressing human 5-HT2A; parameters: expressed in transfected cells; host or cells: CHO-K1; conditions: CHO-K1, percentage of reference agonist α-Me-5-HT at its EC100
Method: (§10) IPOne assays were performed using stably-transfected cell lines (CHO-K1) expressing human 5-HT2A or 5-HT2B receptors. Upon activation of these receptors, Gq-mediated myo-Inositol 1 phosphate (IP1) production is detected by a Homogeneous Time-Resolved Fluorescence (HTRF) competitive immunoassay, whereby an IP1 analog coupled to a fluorophore (acceptor) competes with endogenous IP1 for binding to a labeled anti-IP1 antibody (donor). The resulting signal is inversely proportional to the concentration of IP1 in the sample. Cells were incubated with an IP1 inhibitor (to prevent degradation and allow detection) and either reference compound or test compound. α-Me-5-HT was used as the assay reference agonist. Activation of 5-HT2A or 5-HT2B receptors was measured via accumulation of IP1 detected by HTRF. Agonist activity of test compounds was expressed as a percentage of the activity of the reference agonist at its EC100 concentration.

5-HT2B [5] = molecular target: T3, 5-HT2B; test: IPOne (IP1 HTRF) assay, CHO-K1 cells expressing human 5-HT2B; parameters: expressed in transfected cells; host or cells: CHO-K1; conditions: CHO-K1, percentage of reference agonist α-Me-5-HT at its EC100
Method: as §10

T1 sequence (P28223 whole entry): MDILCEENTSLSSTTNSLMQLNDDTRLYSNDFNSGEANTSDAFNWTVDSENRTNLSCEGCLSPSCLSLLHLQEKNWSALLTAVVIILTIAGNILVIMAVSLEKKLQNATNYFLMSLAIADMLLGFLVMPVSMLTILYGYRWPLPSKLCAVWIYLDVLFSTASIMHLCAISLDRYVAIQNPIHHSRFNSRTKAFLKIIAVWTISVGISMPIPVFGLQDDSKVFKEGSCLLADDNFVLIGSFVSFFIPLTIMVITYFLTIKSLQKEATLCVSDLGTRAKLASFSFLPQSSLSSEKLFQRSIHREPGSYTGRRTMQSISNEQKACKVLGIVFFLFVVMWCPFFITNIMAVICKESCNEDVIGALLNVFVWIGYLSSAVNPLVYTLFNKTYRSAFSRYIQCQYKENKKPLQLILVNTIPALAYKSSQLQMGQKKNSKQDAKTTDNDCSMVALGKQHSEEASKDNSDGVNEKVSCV

SMILES | EC50 (5-HT2A [1]) [nM] | 5-HT2A, Ca++ flux % activation @30 uM (5-HT2A [1]) [%] | EC50 (5-HT2A [2]) [nM] | EC50 (5-HT2C) [nM] | 5-HT2B, Ca++ flux % activation @30 uM (5-HT2B [3]) [%] | EC50 (5-HT2B [3]) [nM] | activation at 0.3 µM (5-HT2A [4]) [%] | activation at 30 µM (5-HT2A [4]) [%] | activation at 0.3 µM (5-HT2B [5]) [%] | activation at 30 µM (5-HT2B [5]) [%]
COC(=O)C1CCCN1CCc1c[nH]c2ccccc12 (centres unmarked) [Compound 1, methyl (2-(1H-indol-3-yl)ethyl)prolinate] | 987 | 78.24 | 16100 | 4160 | 11.15 | > 30000 |  |  |  | 
O=C(O)C1CCCN1CCc1c[nH]c2ccccc12 (centres unmarked) [Compound 2, (2-(1H-indol-3-yl)ethyl)proline] | > 30000 | 2.41 |  |  |  |  |  |  |  | 
OCC1CCCN1CCc1c[nH]c2ccccc12 (centres unmarked) [Compound 3, (1-(2-(1H-indol-3-yl)ethyl)pyrrolidin-2-yl)methanol] | 103 | 94.73 | 1150 | 498 | 23.51 | > 30000 | 47.9 | 97.5 | 25.9 | 93.9
COC(=O)CN(C)CCc1c[nH]c2ccccc12 [Compound 4, methyl N-(2-(1H-indol-3-yl)ethyl)-N-methylglycinate] | 302 | 36.92 |  |  |  |  |  |  |  | 
CN(CCc1c[nH]c2ccccc12)CC(=O)O [Compound 5, N-(2-(1H-indol-3-yl)ethyl)-N-methylglycine] | > 30000 | 24.51 |  |  |  |  |  |  |  | 
CN(CCO)CCc1c[nH]c2ccccc12 [Compound 6, 2-((2-(1H-indol-3-yl)ethyl)(methyl)amino)ethan-1-ol] | 101 | 42.83 |  |  |  |  |  |  |  | 
COC(=O)[C@@H]1CCCN1CCc1c[nH]c2ncccc12 [Compound 94, methyl (2-(1H-pyrrolo[2,3-b]pyridin-3-yl)ethyl)-L-prolinate] |  |  |  |  |  |  | 0.14 | 54.3 | -0.22 | 2.48
OC[C@@H]1CCCN1CCc1c[nH]c2ncccc12 [Compound 95, (S)-(1-(2-(1H-pyrrolo[2,3-b]pyridin-3-yl)ethyl)pyrrolidin-2-yl)methanol] |  |  |  |  |  |  | 0.81 | 84.3 | 1.09 | 9.66
